Measured values as given in the supplement of paper PMC5579334.

What was measured:
HS-Sch-2 [1] = experiment: % inhibition of CellTiter-Glo viability at highest tested concentration (72 h), relative to DMSO and benzethonium chloride controls; higher = more inhibition
Outline: (§1)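 Viability of MPNST cell lines and primary human Schwann cells was read as CellTiter-Glo ATP luminescence after 72 h at 37 °C, 5% CO2, in 384-well plates seeded with 750–1000 cells per well. Each compound had been preprinted at five concentrations in 10-fold steps. Signals were scaled between vehicle and positive-control wells, duplicates averaged where present, and fitted with four-parameter logistic curves. Drug sensitivity score and relative IC50 (censored at the top concentration) come from those fits, and percent inhibition is taken at the top concentration.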

HS-PSS [2] = experiment: as above
Outline: as §1

YST-1 [3] = experiment: as above
Outline: as §1

HS-Sch-2 [4] = experiment: drug sensitivity score (DSS, CellTiter-Glo viability, 72 h) (DSS (dimensionless)); higher = more sensitive; extreme values may be limits of the assay
Outline: as §1

HS-PSS [5] = experiment: as above
Outline: as §1

YST-1 [6] = experiment: as above
Outline: as §1

HS-PSS [7] = experiment: drug sensitivity score (DSS, CellTox-Green cytotoxicity, 72 h) (DSS (dimensionless)); higher = more cytotoxic; extreme values may be limits of the assay
Outline: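 MPNST cell lines and primary human Schwann cells were grown for 72 h at 37 °C in 384-well plates containing five 10-fold compound dilutions. CellTox-Green, added before seeding at a final 1:1000 dilution, gave fluorescence from DNA released by disrupted cells, and signals were scaled to vehicle and positive-control wells. Curves were fitted with a four-parameter logistic model. Drug sensitivity score and relative IC50 come from these fits, with IC50 censored at the top concentration.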

Structure (SMILES) | % inhibition (HS-Sch-2 [1]) [%] | % inhibition (HS-PSS [2]) [%] | % inhibition (YST-1 [3]) [%] | drug sensitivity score (HS-Sch-2 [4]) | drug sensitivity score (HS-PSS [5]) | drug sensitivity score (YST-1 [6]) | drug sensitivity score (HS-PSS [7])
CN(C)C1CCN(C(=O)c2ccc(NC(=O)Nc3ccc(-c4nc(N5CCOCC5)nc(N5CCOCC5)n4)cc3)cc2)CC1 [Gedatolisib] (max concentration tested 1000 nM) | 80.3 | 73.4 | 93.2 | 12 | 17.4 | 19.4 | 0
O=C(O)c1ccc2c(c1)nc(Nc1cccc(Cl)c1)c1ccncc12 [Silmitasertib] (max concentration tested 10000 nM) | 52.4 | 66.2 | 97.4 | 2.47 | 4.36 | 6.93 | 0
O=C(NOCCO)c1ccc2cncn2c1Nc1ccc(I)cc1F [GDC-0623] (max concentration tested 2500 nM) | 55 | 37.1 | 6.24 | 5.27 | 3.76 | 0 | 0.89
Cc1cc(-c2ncc(CC(=O)Nc3ccc(-c4cnccn4)cn3)cc2C)ccn1 [NVP-LGK974] (max concentration tested 10000 nM) | 52.2 | 45.4 | 1.59 | 3 | 3.51 | 0 | 0
COc1cc2c(Nc3ccc(Cl)c(Cl)c3F)ncnc2cc1OC[C@H]1C[C@@H]2CN(C)C[C@@H]2C1 [XL-647] (max concentration tested 1000 nM) | 31.1 | 30.7 | 26.5 | 1.16 | 0.99 | 1.63 | 0
COc1cc2ncnc(Oc3cccc(NC(=O)Nc4cc(C(C)(C)C(F)(F)F)on4)c3)c2cc1OC (max concentration tested 10000 nM) | -3.7 | 3.34 | 3.62 | 0 | 0 | 0.17 | 0
COc1cc(OC)c(/C=C/S(=O)(=O)Cc2ccc(OC)c(NCC(=O)O)c2)c(OC)c1 [Rigosertib] (max concentration tested 10000 nM) | 87.6 | 61.8 | 79.3 | 21.8 | 14.8 | 21.8 | 0
CCCC(CCC)C(=O)O [Valproic acid] (max concentration tested 1000000 nM) | 2.29 | 6.13 | 44.2 | 0 | 0 | 2.34 | 0
CC(C)NC[C@@H](C(=O)N1CCN(c2ncnc3c2[C@H](C)C[C@H]3O)CC1)c1ccc(Cl)cc1 [Ipatasertib] (max concentration tested 10000 nM) | 39.1 | 37.1 | 55.2 | 4.24 | 3.83 | 6.9 | 0.28
COc1ccc(COc2cc3oc(=O)c4cc(C(C)O)ccc4c3cc2OC)cc1 (centres undefined) [Palomid-529] (max concentration tested 10000 nM) | -4.31 | 2.33 | 10.2 | 0 | 0 | 0 | 0
O=C(Nc1cccc(C(F)(F)F)c1)Nc1cc(S(=O)(=O)NC2CC2)ccc1-c1ccsc1 [AGI-6780] (max concentration tested 10000 nM) | 28.6 | 24.7 | 12.9 | 2.42 | 0.86 | 0.34 | 0
C[C@@H]1CN(CC(=O)Nc2ccc3c(c2)Cc2cccc(-c4cc(=O)cc(N5CCOCC5)o4)c2S3)C[C@H](C)O1 (max concentration tested 25000 nM) | 97.9 | 45.7 | 41.4 | 8.7 | 1.79 | 1.74 | 0
NCC(=O)Nc1ccc(-n2nc(C(F)(F)F)cc2-c2ccc3c(ccc4ccccc43)c2)cc1 (max concentration tested 25000 nM) | 101 | 101 | 101 | 7.03 | 4.86 | 5.55 | 7.95
CNC(=O)c1ccc(C)c(-n2c(C)cc(OCc3ccc(F)cc3F)c(Br)c2=O)c1 (max concentration tested 1000 nM) | 4 | 8.35 | 38.4 | 0 | 0 | 5.16 | 0
CNc1nc(Nc2cn(C(C)(C)C#N)nc2C)ncc1C(F)(F)F [GNE-0877] (max concentration tested 1000 nM) | 5.3 | 23.4 | -4.9 | 0 | 2.29 | 0 | 0
CC[C@H](C)C(=O)O[C@H]1C[C@H](O)C=C2C=C[C@H](C)[C@H](CC[C@@H](O)C[C@@H](O)CC(=O)O)[C@H]21 [Pravastatin] (max concentration tested 10000 nM) | -3.68 | 24.1 | 0.31 | 0 | 1.44 | 0 | 0
N.N.[Cl][Pt][Cl] [Cisplatin] (max concentration tested 100000 nM) | 100 | 86.4 | 95.9 | 23.1 | 13.1 | 13.8 | 9.13
